Measurements taken from PMC8085414, “L-Carnitine Production Through Biosensor-Guided Construction of the Neurospora crassa Biosynthesis Pathway in Escherichia coli” (Frontiers in Bioengineering and Biotechnology, 2021).

Target: T1, TMABADH.1S (Neurospora crassa, UniProt Q7RYT1)
T1 construct: gene NCU00378; 495 AA short annotation of NCU00378; codon-harmonized synthetic gene in pECXT99A, E. coli DH5alpha crude extract
T1 sequence (Q7RYT1 52-546): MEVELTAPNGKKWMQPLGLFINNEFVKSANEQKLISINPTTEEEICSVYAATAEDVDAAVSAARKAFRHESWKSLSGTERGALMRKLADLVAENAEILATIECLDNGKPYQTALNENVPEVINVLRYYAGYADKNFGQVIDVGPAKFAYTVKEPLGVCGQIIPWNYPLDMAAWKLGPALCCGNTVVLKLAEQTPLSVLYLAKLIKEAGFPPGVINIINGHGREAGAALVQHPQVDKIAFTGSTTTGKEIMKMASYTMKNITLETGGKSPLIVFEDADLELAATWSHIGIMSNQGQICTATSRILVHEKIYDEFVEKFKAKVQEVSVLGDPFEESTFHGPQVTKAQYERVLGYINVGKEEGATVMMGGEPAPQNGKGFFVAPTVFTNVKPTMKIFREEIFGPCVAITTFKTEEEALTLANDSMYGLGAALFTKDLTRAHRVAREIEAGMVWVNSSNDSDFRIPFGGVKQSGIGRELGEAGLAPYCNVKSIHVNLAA
Assay: NADH formation at […] nm, E. coli crude extract
Format: biochemical
Conditions: 2 mM NAD+, 0.4 mM TMABA iodide, glycine-NaOH pH 9.5, 30 °C

For `NC(=O)c1ccc[n+]([C@@H]2O[C@H](COP(=O)(O)OP(=O)(O)OC[C@H]3O[C@@H](n4cnc5c(N)ncnc54)[C@H](O)[C@@H]3O)[C@@H](O)[C@H]2O)c1` [NAD^+], the “NADH formation at 340 nm, E. coli crude extract” value was “co-conversion of NAD^+ to NADH in the TMABADH reaction”.
